Article PMC10056986 (Pharmaceuticals, 2023)
Where two headings read alike, the source gives them in different places.

What was measured:
Alpha1a = Alpha1a (Homo sapiens, UniProt P35348); experiment: cell-based
Alpha2a = Alpha2a (Homo sapiens, UniProt P08913); experiment: cell-based
[1] = tested on: Influenza virus A/PR/8/34 (H1N1); experiment: microbe, parasite or virus in culture; assay type: cell-based; conditions: H1N1|PR/8, MDCK, read-out: EC50 (mean ± SD)
[2] = tested on: influenza A virus/California/07/2009 (H1N1); parameters: species or system ferrets; conditions: in vivo, po, 25 mg/kg/day
22 GPCR targets [3] = assay type: cell-based, human; conditions: read-out: EC50 (agonistic activity)
22 GPCR targets [4] = assay type: cell-based, human; conditions: read-out: IC50 (antagonist screening)
[5] = tested on: Influenza virus A/WS/33 (H1N1); experiment: microbe, parasite or virus in culture; assay type: cell-based; conditions: H1N1, MDCK, read-out: EC50 (mean ± SD)
HSV-1 GHSV-UL46 = experiment: microbe, parasite or virus in culture; assay type: cell-based, herpes simplex virus type 1; conditions: Human alphaherpesvirus 1, Vero C1008, read-out: EC50 for Virus
V1a = V1a (Homo sapiens, UniProt P37288); experiment: cell-based
HPIV-3 C243 = experiment: microbe, parasite or virus in culture; assay type: cell-based, human parainfluenza virus type 3; conditions: Human respirovirus 3, LLC-MK2, read-out: EC50 for Virus
Influenza virus B/Lee/40 = experiment: microbe, parasite or virus in culture; assay type: cell-based; conditions: MDCK, read-out: EC50 (mean ± SD)
[6] = tested on: A/Qingyuan/GIRD01/2017 (H7N9); experiment: microbe, parasite or virus in culture; assay type: cell-based, avian influenza virus; conditions: Influenza A virus, H7N9, MDCK, read-out: IC50 (mean ± SD)
in vivo = conditions: both, beagle, dog
[7] = tested on: Influenza virus A/Hong Kong/8/68 (H3N2); experiment: microbe, parasite or virus in culture; assay type: cell-based; conditions: unidentified influenza virus, H3N2, MDCK, read-out: EC50 (mean ± SD)
CCKa = target: T1, CCKa (Homo sapiens, UniProt P32238); experiment: cell-based
T1 sequence (P32238 1-428): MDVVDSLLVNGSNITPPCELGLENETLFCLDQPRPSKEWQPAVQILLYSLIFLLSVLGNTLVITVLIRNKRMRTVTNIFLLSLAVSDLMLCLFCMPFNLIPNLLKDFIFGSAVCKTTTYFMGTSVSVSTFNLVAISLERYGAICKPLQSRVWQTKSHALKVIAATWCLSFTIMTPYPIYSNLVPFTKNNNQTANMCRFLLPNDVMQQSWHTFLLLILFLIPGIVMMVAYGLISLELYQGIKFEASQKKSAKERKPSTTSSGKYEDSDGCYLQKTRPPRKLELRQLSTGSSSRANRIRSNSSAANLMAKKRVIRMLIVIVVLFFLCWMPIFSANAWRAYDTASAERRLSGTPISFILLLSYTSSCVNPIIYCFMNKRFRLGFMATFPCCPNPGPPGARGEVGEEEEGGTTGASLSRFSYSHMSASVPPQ

in vitro [8] = conditions: human
[9] = tested on: Influenza virus A/California/2/2014 (H3N2); experiment: microbe, parasite or virus in culture; assay type: cell-based; conditions: H3N2, MDCK, read-out: EC50 (mean ± SD)
ABL1 = ABL1 (Homo sapiens, UniProt P00519); experiment: biochemical
[10] = tested on: H1N1 and H3N2 influenza A virus strains; experiment: microbe, parasite or virus in culture; conditions: MDCK
Aurora A = Aurora A (Homo sapiens, UniProt O14965); experiment: biochemical
TNIK = TNIK (Homo sapiens, UniProt Q9UKE5); experiment: biochemical
H2 = H2 (Homo sapiens, UniProt P25021); experiment: cell-based
HCV replicon 1b = experiment: microbe, parasite or virus in culture; assay type: cell-based; conditions: Hepatitis C virus, read-out: EC50 for Virus
CAMK2 alpha = CAMK2 alpha (Homo sapiens, UniProt Q9UQM7); experiment: biochemical
in vitro [11] = conditions: African green monkey
op-kappa = op-kappa (Homo sapiens, UniProt P41145); experiment: cell-based
DYRK3 = DYRK3 (Homo sapiens, UniProt O43781); experiment: biochemical
FGFR1 = FGFR1 (Homo sapiens, UniProt P11362); experiment: biochemical
[12] = target: influenza virus polymerase (PB1, PB2, NP, PA from A/California/04/2009 (H1N1) pdm09) (Influenza A virus, UniProt C3W5R8+C3W5R9); assay type: cell-based
[13] = 10,000 nM, read-out: Inhibition at Maximum Concentration (%)

Chain of Alpha2a (P08913 whole entry): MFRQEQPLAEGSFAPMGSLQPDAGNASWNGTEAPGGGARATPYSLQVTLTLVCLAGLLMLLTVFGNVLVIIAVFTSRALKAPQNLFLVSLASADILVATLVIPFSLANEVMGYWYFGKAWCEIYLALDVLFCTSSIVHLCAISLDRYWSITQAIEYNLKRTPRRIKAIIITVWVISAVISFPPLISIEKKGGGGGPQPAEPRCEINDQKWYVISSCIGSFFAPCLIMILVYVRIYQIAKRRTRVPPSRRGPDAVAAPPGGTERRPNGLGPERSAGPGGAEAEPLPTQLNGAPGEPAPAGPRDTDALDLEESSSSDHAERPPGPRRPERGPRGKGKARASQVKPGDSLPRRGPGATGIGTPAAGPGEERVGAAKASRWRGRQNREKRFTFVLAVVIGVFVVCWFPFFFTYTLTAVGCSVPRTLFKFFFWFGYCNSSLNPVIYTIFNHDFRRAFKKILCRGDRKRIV
Chain of Alpha1a (P35348 whole entry): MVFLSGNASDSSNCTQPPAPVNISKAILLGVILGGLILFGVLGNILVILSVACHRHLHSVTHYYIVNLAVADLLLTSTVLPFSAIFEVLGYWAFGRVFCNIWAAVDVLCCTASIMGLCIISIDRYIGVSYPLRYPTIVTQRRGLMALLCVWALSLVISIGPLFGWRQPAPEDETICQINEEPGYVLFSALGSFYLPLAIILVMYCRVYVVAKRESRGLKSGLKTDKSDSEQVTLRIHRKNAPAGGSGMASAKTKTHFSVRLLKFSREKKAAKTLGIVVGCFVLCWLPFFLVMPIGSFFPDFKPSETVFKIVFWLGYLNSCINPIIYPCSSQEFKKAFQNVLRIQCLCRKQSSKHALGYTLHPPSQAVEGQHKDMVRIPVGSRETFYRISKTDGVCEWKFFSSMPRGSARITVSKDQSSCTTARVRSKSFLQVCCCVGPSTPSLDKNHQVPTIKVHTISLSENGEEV
Chain of V1a (P37288 whole entry): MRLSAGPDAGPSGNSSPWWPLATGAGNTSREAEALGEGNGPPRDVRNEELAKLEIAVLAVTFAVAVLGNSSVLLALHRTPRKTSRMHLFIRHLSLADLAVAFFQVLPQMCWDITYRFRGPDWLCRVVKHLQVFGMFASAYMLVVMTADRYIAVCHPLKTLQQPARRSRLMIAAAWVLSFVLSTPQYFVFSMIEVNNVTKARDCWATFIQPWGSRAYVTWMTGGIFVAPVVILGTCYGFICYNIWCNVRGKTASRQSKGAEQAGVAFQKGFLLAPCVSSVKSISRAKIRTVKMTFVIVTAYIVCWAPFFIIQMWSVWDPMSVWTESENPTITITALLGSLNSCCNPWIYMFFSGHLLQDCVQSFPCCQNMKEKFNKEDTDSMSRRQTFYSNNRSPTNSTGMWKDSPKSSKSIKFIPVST
Chain of op-kappa (P41145 whole entry): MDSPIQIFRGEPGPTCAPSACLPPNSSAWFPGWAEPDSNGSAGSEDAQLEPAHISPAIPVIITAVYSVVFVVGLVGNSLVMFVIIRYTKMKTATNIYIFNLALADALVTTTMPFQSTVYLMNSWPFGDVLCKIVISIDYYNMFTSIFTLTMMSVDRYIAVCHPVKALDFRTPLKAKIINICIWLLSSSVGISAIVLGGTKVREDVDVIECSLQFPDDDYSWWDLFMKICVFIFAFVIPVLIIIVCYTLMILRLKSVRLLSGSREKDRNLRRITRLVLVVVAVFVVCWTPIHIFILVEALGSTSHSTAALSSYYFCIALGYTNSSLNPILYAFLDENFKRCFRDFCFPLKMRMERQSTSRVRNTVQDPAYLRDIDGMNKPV
Chain of H2 (P25021 whole entry): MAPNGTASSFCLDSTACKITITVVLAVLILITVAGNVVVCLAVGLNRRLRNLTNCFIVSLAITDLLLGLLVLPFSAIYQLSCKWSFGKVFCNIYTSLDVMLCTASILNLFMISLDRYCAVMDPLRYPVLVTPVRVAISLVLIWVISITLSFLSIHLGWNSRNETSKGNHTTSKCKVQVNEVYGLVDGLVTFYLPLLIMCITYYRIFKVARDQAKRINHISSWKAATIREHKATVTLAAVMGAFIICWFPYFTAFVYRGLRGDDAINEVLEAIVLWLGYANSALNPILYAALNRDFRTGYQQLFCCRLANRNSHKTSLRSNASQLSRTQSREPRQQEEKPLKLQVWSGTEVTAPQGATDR
Chain of FGFR1 (P11362 22-822): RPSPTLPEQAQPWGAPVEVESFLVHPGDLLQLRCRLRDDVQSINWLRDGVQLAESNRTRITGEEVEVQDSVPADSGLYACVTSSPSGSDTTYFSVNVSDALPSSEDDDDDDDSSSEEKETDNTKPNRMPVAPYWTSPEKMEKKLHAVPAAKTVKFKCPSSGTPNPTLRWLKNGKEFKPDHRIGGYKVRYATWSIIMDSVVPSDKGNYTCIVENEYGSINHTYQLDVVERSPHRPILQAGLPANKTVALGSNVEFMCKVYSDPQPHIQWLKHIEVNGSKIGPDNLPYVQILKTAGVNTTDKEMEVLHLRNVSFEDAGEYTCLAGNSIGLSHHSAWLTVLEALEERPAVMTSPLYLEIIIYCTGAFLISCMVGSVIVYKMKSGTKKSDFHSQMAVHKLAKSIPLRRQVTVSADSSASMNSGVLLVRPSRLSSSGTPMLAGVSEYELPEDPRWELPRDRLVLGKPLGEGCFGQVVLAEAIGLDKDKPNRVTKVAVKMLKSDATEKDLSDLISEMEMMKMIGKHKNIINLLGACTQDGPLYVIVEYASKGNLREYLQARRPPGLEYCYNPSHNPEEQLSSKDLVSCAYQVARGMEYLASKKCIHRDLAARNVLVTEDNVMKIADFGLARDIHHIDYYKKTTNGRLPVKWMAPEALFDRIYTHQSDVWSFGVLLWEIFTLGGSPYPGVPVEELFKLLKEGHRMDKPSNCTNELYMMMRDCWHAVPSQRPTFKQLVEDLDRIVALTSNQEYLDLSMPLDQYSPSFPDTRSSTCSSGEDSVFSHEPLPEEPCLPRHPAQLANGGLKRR
Chain of DYRK3 (O43781 whole entry): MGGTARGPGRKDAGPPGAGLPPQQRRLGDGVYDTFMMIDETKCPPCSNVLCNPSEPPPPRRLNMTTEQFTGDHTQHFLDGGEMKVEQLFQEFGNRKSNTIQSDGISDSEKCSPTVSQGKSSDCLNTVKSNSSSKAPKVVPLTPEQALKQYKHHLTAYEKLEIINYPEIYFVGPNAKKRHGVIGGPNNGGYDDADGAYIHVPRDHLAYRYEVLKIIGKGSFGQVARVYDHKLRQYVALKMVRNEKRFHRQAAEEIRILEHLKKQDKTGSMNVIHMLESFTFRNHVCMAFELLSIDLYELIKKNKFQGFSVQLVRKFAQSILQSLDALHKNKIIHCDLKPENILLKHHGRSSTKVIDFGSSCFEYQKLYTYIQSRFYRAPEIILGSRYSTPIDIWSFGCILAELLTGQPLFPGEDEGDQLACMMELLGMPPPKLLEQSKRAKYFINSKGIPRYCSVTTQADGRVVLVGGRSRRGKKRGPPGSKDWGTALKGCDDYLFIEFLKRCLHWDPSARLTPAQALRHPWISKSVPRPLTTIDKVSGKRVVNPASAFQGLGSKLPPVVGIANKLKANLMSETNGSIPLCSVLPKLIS
Chain of CAMK2 alpha (Q9UQM7 whole entry): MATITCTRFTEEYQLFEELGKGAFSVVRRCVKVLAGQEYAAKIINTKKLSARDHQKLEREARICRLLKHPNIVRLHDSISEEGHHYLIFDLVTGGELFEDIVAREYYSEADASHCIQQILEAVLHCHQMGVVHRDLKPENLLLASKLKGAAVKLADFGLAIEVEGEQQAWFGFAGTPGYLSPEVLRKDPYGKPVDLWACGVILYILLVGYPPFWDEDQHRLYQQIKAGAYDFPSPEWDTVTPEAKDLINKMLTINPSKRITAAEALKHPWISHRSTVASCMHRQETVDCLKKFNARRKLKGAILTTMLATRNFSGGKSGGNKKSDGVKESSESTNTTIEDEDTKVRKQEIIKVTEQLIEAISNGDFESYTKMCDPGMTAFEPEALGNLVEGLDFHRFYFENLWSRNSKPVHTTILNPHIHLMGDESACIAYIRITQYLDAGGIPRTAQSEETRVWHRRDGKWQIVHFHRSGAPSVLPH
Chain of Aurora A (O14965 whole entry): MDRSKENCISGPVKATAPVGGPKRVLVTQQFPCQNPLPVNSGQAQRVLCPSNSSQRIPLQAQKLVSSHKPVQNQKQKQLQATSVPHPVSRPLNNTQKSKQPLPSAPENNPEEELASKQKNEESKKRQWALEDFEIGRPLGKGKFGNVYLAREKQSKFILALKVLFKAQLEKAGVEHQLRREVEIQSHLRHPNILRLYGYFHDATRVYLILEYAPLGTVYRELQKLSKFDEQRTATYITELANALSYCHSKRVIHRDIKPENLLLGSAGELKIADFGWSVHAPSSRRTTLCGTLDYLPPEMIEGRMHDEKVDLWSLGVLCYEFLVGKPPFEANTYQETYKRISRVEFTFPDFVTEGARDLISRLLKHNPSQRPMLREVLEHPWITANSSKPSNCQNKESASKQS

**Q.** With `O=C(O)[C@H]1C2CCC(CC2)[C@@H]1Nc1nc(-c2n[nH]c3ncc(F)cc23)nc(C2CC2)c1F` [ZSP1273] as the compound, how does the EC50 (Alpha1a) read?
**A.** > 12000 nM

**Q.** What about the “Activity at Maximum Concentration (%)” value (Alpha1a; 12,000 nM) of the same compound?
**A.** −2.93%

**Q.** And the EC50 (Alpha2a)?
**A.** > 12000 nM

**Q.** And the “Activity at Maximum Concentration (%)” value (Alpha2a; 12,000 nM)?
**A.** −2.1%

**Q.** And the EC50 [1]?
**A.** 0.042 ± 0.01 nM

**Q.** And the “viral load in nasal lavage fluid vs vehicle” value [2]?
**A.** decreased significantly

**Q.** What about the EC50 (22 GPCR targets [3]) of the same compound?
**A.** > 12000 nM

**Q.** What about the IC50 (22 GPCR targets [4]) of the same compound?
**A.** > 10000 nM

**Q.** And the EC50 [5]?
**A.** 0.032 ± 0.01 nM

**Q.** What about the EC50 (HSV-1 GHSV-UL46) of the same compound?
**A.** > 10000 nM

**Q.** And the IC50 (V1a)?
**A.** > 10000 nM

**Q.** What about the inhibition at 10 µM (V1a; [13]) of the same compound?
**A.** 7.24%

**Q.** And the EC50 (HPIV-3 C243)?
**A.** > 10000 nM

**Q.** What about the EC50 (Influenza virus B/Lee/40) of the same compound?
**A.** > 1 nM

**Q.** And the IC50 [6]?
**A.** 0.777 ± 0.427 nM

**Q.** And the AUC(0-t) (in vivo; iv, 1 mg/kg)?
**A.** 791 ± 329 ng·h/mL

**Q.** What about the Vd (in vivo; iv, 1 mg/kg) of the same compound?
**A.** 0.47 ± 0.0848 L/kg

**Q.** And the clearance (in vivo; iv, 1 mg/kg)?
**A.** 25.8 ± 7.6 mL/min/kg

**Q.** What about the half-life (in vivo; iv, 1 mg/kg) of the same compound?
**A.** 27.4 ± 10.1 min

**Q.** What about the AUC(0-t) (in vivo; po, 1 mg/kg) of the same compound?
**A.** 211 ± 62.4 ng·h/mL

**Q.** What about the Cmax (in vivo; po, 1 mg/kg) of the same compound?
**A.** 292 ± 78.2 ng/mL

**Q.** And the Tmax (in vivo; po, 1 mg/kg)?
**A.** 27.5 ± 6.12 min

**Q.** And the bioavailability (in vivo; po, 1 mg/kg)?
**A.** 26.7%

**Q.** What about the AUC(0-t) (in vivo; po, 5 mg/kg) of the same compound?
**A.** 1210 ± 641 ng·h/mL

**Q.** What about the Cmax (in vivo; po, 5 mg/kg) of the same compound?
**A.** 1450 ± 800 ng/mL

**Q.** What about the Tmax (in vivo; po, 5 mg/kg) of the same compound?
**A.** 32.5 ± 14.8 min

**Q.** What about the AUC(0-t) (in vivo; po, 15 mg/kg) of the same compound?
**A.** 5030 ± 1960 ng·h/mL

**Q.** What about the Cmax (in vivo; po, 15 mg/kg) of the same compound?
**A.** 5800 ± 2150 ng/mL

**Q.** What about the Tmax (in vivo; po, 15 mg/kg) of the same compound?
**A.** 27.5 ± 17.5 min

**Q.** What about the EC50 [7] of the same compound?
**A.** 0.019 ± 0.01 nM

**Q.** And the IC50 (CCKa)?
**A.** > 10000 nM

**Q.** And the inhibition at 10 µM (CCKa; [13])?
**A.** -17.6%

**Q.** And the CC50 (in vitro [8])?
**A.** > 10000 nM

**Q.** What about the EC50 [9] of the same compound?
**A.** 0.01 ± 0.0002 nM

**Q.** What about the IC50 (ABL1) of the same compound?
**A.** > 10000 nM

**Q.** What about the EC50 ([10]; read-out: EC50 values range) of the same compound?
**A.** 0.01 to 0.063 nM

**Q.** And the EC50 ([10]; read-out: average EC50 value range)?
**A.** 0.012 to 0.063 nM

**Q.** What about the IC50 (Aurora A) of the same compound?
**A.** 527 nM

**Q.** What about the IC50 (TNIK) of the same compound?
**A.** > 10000 nM

**Q.** What about the EC50 (H2) of the same compound?
**A.** > 12000 nM

**Q.** What about the “Activity at Maximum Concentration (%)” value (H2; 12,000 nM) of the same compound?
**A.** −3.46%

**Q.** And the EC50 (HCV replicon 1b)?
**A.** > 10000 nM

**Q.** What about the IC50 (CAMK2 alpha) of the same compound?
**A.** > 10000 nM

**Q.** What about the CC50 (in vitro [11]) of the same compound?
**A.** > 10000 nM

**Q.** And the IC50 (op-kappa)?
**A.** > 10000 nM

**Q.** And the inhibition at 10 µM (op-kappa; [13])?
**A.** -27.8%

**Q.** What about the IC50 (DYRK3) of the same compound?
**A.** > 10000 nM

**Q.** What about the IC50 (FGFR1) of the same compound?
**A.** > 10000 nM

**Q.** And the IC50 ([12]; read-out: IC50, Mean ± SEM)?
**A.** 0.562 ± 0.116 nM

**Q.** And the IC50 ([12]; read-out: IC50, experiment 1)?
**A.** 0.533 nM

**Q.** And the IC50 ([12]; read-out: IC50, experiment 2)?
**A.** 0.464 nM

**Q.** And the IC50 ([12]; read-out: IC50, experiment 3)?
**A.** 0.69 nM
